Experimental data reported in patent US20150111835A1, “MODIFIED PEPTIDES AND THEIR USE FOR TREATING AUTOIMMUNE DISEASES” (CENTRE NATIONAL DE LA RECHERECHE SCIENTIFIQUE, priority 2011, published 2015).
Where a SMILES comes first, the peptide text is derived from it. [ ]: non-standard residue; d: D form. Met(O) = CS(=O)CC[C@H](N)C(=O)O; pS = N[C@@H](COP(=O)(O)O)C(=O)O

How the values were obtained:
[1] = Stability of the peptides at 37° C. in 10% (v/v) mannitol solution, HPLC peak area of intact peptide; format: physicochemical; details: for 95% of stability (predicted): time to 95% stability from linear equation; for Linear equation of stability (%) versus days: slope: y = stability %, x = days; for Stability (%): 10% mannitol
Procedure: The stability of the peptide SEQ ID NO: 2 in which the serine at position 10 is phosphorylated and the methionine at position 4 is oxidized (P140(MO)), and the peptide SEQ ID NO: 1 in which the serine at position 10 is phosphorylated (P140) was measured at 37° C., in a solution of 10% (v/v) mannitol. For each peptide, 3 concentrations have been tested: 200, 100 and 50 μg/mL.
At the indicated time, the integrity of P140 and P140(MO) peptides was measured in saline by high-performance liquid chromatography from the area of the peak corresponding to the intact peptide.
Stability is measured by using the HPLC peak surface.

[2] = biological target: T1, HSC70 protein (Bos taurus, UniProt P19120); assay: BIAcore binding of peptides to immobilized HSC70; set-up: species or system bovine; details: for Rmax / KA / Kd / kd: 25° C., 1:1 Langmuir model; for Rmax: global fit; for KA / Kd / kd: same value given at each analyte concentration
T1 construct: purchased Stressgen
T1 sequence (P19120 whole entry): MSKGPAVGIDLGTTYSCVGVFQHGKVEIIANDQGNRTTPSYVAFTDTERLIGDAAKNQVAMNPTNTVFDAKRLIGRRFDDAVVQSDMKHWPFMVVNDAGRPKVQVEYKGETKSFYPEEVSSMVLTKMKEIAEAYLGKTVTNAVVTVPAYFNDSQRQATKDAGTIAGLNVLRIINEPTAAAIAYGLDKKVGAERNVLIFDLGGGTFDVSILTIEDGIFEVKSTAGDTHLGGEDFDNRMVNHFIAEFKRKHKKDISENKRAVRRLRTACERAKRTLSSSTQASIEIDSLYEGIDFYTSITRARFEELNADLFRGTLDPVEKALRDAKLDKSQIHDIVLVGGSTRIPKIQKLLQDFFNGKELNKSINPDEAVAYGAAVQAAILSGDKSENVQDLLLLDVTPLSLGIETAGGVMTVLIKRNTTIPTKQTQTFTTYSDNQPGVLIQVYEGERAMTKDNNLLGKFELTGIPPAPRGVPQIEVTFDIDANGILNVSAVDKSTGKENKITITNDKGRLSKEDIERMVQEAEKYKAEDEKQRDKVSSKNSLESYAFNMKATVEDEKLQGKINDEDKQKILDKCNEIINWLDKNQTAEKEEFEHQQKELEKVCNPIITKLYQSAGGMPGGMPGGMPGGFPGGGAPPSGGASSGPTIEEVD
Procedure: BIAcore 3000 system (Biacore AB) was used to evaluate the binding of P140 peptides to HSC70 protein (Page et al., 2009, and 2011). Sensor chip CMS, surfactant P20, amine coupling kit containing N-hydroxysuccinimide (NHS) and N-ethyl-N′-dimethylaminopropyl carbodiimide (EDC), 2-(2-pyridinyldithio)ethaneamine (PDEA) and ethanolamine were from Biacore AB. Biosensor assays were performed with HBS-EP buffer as running buffer (10 mM HEPES, 150 mM NaCl, 3 mM EDTA, 0.005% surfactant P20, pH 7.4). The compounds were diluted in the running buffer. The sensor chip surface was regenerated after each experiment by injecting 10 μL of 10 mM HCl. Recombinant bovine HSC70 (Stressgen) was immobilized on flow cells of a CMS sensor chip through its thiol groups using 35 μL PDEA in 50 mM borate buffer, pH 8.3 on the NHS/EDC-activated matrix. Then, 35 μL of HSC70 (100 μg/mL in formate buffer, pH 4.3) were injected until a response of 13,000 response units (RU) corresponding to 13 ng/mm^2 of HSC70 was immobilized. Twenty μL of a 50 mM cysteine/1 M NaCl solution was used to saturate unoccupied sites on the chip. The direct binding measurement of P140 peptides to HSC70 was carried out at 25° C. with a constant flow rate of 20 μL/min. P140 peptide and analogues were injected in the flux at different concentrations for 3 min, followed by a dissociation phase of 3 min. The kinetic parameters were calculated using the BIAeval 3.1 software on a personal computer. Analysis was performed using the simple 1:1 Langmuir binding model. The specific binding profiles were obtained after subtracting the response signal from the control empty channel and from blank-buffer injection. The fitting to each model was judged by the χ^2 value and randomness of residue distribution compared to the theoretical model.

[3] = tested on: MRL/lpr mice; assay: Survival analysis in MRL/lpr lupus mice; format: in vivo, mouse; details: female MRL/lpr mice, intravenous, from 5 weeks of age; NaCl control = 25 weeks
Procedure: (§1) Statistical tests were performed using GraphPad Prism version 5.0. The two-way ANOVA test was used to analyze statistical significance of proteinuria differences between control and peptide-treated groups of mice. Survival of control and P140 analogue-treated female MRL/lpr mice was analyzed by the Kaplan-Meier method, and the significance of differences was determined by the log-rank test. For the other variables, statistical significance was assessed using the Student's t-test. p values less than 0.05 were considered significant.
It has been determined that this mouse strain carries a mutation in the fas gene. Also, the MRL/lpr is a useful model to study behavioural and cognitive deficits found in autoimmune diseases and the efficacy of immunosuppressive agents [Monneaux et al., 2003, Eur. J. Immunol. 33,287-296].
Five-week-old female MRL/lpr mice received P140 or peptide P140(MO) intravenously as described (Monneaux et al., 2003, Eur. J. Immunol. 33,287-296). All experimental protocols were carried out with the approval of the local Institutional Animal Care and Use Committee (CREMEAS). As control, mice were injected with NaCl.
Twenty mice were used for each peptide or NaCl.

[4] = tested on: MRL/lpr mice; assay: Cellularity analysis (peripheral blood leucocytes) in MRL/lpr mice; format: in vivo, mouse; details: 100 μg/100 μL single injection, peripheral blood 5 days after, efficacy at least similar to P140
Procedure: MRL/lpr mice were injected with 100 μg/100 μL of P140 or P140(MO) and cellularity (peripheral blood) was studied 5 days after this unique injection. The count includes all the leucocytes. In view of the low number of tested mice, a non parametric statistical test has been realised Mann-Whitney).

[5] = tested on: MRL/lpr mice; assay: Proteinuria analysis in MRL/lpr mice (Albustix); format: in vivo, mouse; details: fresh urine, Albustix score over time (FIG. 3)
Procedure: as §1
Proteinuria of the above mice was measured in fresh urine using Albustix (Bayer Diagnostics) and was semi-quantitatively estimated according to a […] recommended by the manufacturer (no proteinuria=0; traces=1; 1+=2; 2+=3; 3+=4; 4+=5).

SMILES	95% of stability (predicted) ([1]; 50 μg/mL, 37° C.)	Linear equation of stability (%) versus days: slope ([1]; 50 μg/mL, 37° C.)	Stability (%) ([1]; 50 μg/mL, day 0, 37° C.)	Stability (%) ([1]; 50 μg/mL, day 20, 37° C.)	Stability (%) ([1]; 50 μg/mL, day 40, 37° C.)	Stability (%) ([1]; 50 μg/mL, day 100, 37° C.)	Linear equation of stability (%) versus days: slope ([1]; 100 μg/mL, 37° C.)	Stability (%) ([1]; 100 μg/mL, day 0, 37° C.)	Stability (%) ([1]; 100 μg/mL, day 20, 37° C.)	Stability (%) ([1]; 100 μg/mL, day 40, 37° C.)	Stability (%) ([1]; 100 μg/mL, day 100, 37° C.)	95% of stability (predicted) ([1]; 200 μg/mL, 37° C.)	Stability (%) ([1]; 200 μg/mL, day 0, 37° C.)	Stability (%) ([1]; 200 μg/mL, day 20, 37° C.)	Stability (%) ([1]; 200 μg/mL, day 40, 37° C.)	Stability (%) ([1]; 200 μg/mL, day 100, 37° C.)	Rmax ([2]; BIAcore) [RU]	KA ([2]; BIAcore) [M⁻¹]	Kd ([2]; BIAcore) [µM]	kd ([2]; BIAcore) [s⁻¹]	other results
CC[C@H](C)[C@H](NC(=O)[C@H](Cc1ccccc1)NC(=O)[C@H](C)NC(=O)[C@H](Cc1ccc(O)cc1)NC(=O)CNC(=O)[C@H](CCCNC(=N)N)NC(=O)[C@@H]1CCCN1C(=O)[C@H](CCCCN)NC(=O)CNC(=O)[C@H](COP(=O)(O)O)NC(=O)[C@H](CCCNC(=N)N)NC(=O)[C@H](CCCCN)NC(=O)[C@H](CO)NC(=O)[C@H](Cc1ccc(O)cc1)NC(=O)[C@@H](NC(=O)[C@H](CCSC)NC(=O)[C@H](Cc1c[nH]cn1)NC(=O)[C@@H](NC(=O)[C@@H](N)CCCNC(=N)N)[C@@H](C)CC)C(C)C)C(=O)N[C@@H](CCC(=O)O)C(=O)N[C@@H](Cc1ccc(O)cc1)C(=O)O [Compound P140] (H-RIHMVYSKR[pS]GKPRGYAFIEY-OH)	1 months	y = −0.099x +	100	95.5	93.2	89.6	y = −0.0612x +	100	97.5	96.2	93.4	6 months	100	98.7	98.5	97.4	83.3	144000	6.94	0.00312	Stability (%) ([1]; 50 μg/mL, day 60, 37° C.): 91.5%; Stability (%) ([1]; 50 μg/mL, day 80, 37° C.): 90.3%; 95% of stability (predicted) ([1]; 100 μg/mL, 37° C.): 2 months; Stability (%) ([1]; 100 μg/mL, day 60, 37° C.): 95.5%; Stability (%) ([1]; 100 μg/mL, day 80, 37° C.): 94.5%; Linear equation of stability (%) versus days: slope ([1]; 200 μg/mL, 37° C.): y = −0.0238x +; Stability (%) ([1]; 200 μg/mL, day 60, 37° C.): 97.9%; Stability (%) ([1]; 200 μg/mL, day 80, 37° C.): 97.6%; Req ([2]; peptide 1.56 μM): 15.3 RU; kobs ([2]; peptide 1.56 μM): 0.00382 s⁻¹; Req ([2]; peptide 3.12 μM): 25.8 RU; kobs ([2]; peptide 3.12 μM): 0.00452 s⁻¹; Req ([2]; peptide 6.25 μM): 39.5 RU; kobs ([2]; peptide 6.25 μM): 0.00593 s⁻¹; Req ([2]; peptide 12.5 μM): 53.6 RU; kobs ([2]; peptide 12.5 μM): 0.00874 s⁻¹; Req ([2]; peptide 25 μM): 65.2 RU; kobs ([2]; peptide 25 μM): 0.0144 s⁻¹; Median survival [3]: 29 weeks
CC[C@H](C)[C@H](NC(=O)[C@H](Cc1ccccc1)NC(=O)[C@H](C)NC(=O)[C@H](Cc1ccc(O)cc1)NC(=O)CNC(=O)[C@H](CCCNC(=N)N)NC(=O)[C@@H]1CCCN1C(=O)[C@H](CCCCN)NC(=O)CNC(=O)[C@H](COP(=O)(O)O)NC(=O)[C@H](CCCNC(=N)N)NC(=O)[C@H](CCCCN)NC(=O)[C@H](CO)NC(=O)[C@H](Cc1ccc(O)cc1)NC(=O)[C@@H](NC(=O)[C@H](CC[S+](C)[O-])NC(=O)[C@H](Cc1c[nH]cn1)NC(=O)[C@@H](NC(=O)[C@@H](N)CCCNC(=N)N)[C@@H](C)CC)C(C)C)C(=O)N[C@@H](CCC(=O)O)C(=O)N[C@@H](Cc1ccc(O)cc1)C(=O)O (some centres unmarked) [P140(MO), RIHM(O)VYSKRS(PO3H2)GKPRGYAFIEY] (H-RIH[Met(O)]VYSKR[pS]GKPRGYAFIEY-OH)	2 years	y = −0.0064x +	100	100	100	99.4	y = −0.0064x +	100	99.1	99.5	99.1	∞	100	100	100	100	39	524000	1.91	0.0022	Peripheral hypercellularity [4]: able to decrease peripheral hypercellularity; Stability over 100 days (in words) ([1]; all tested concentrations (50 to 200 μg/ml), 37° C.): stable; Affinity for HSC70 compared with P140 (non-oxidized counterpart) ([2]; BIAcore): not statistically different; Req ([2]; peptide 1.56 μM): 17.6 RU; kobs ([2]; peptide 1.56 μM): 0.004 s⁻¹; Req ([2]; peptide 3.12 μM): 24.2 RU; kobs ([2]; peptide 3.12 μM): 0.0058 s⁻¹; Req ([2]; peptide 6.25 μM): 29.9 RU; kobs ([2]; peptide 6.25 μM): 0.0094 s⁻¹; Req ([2]; peptide 12.5 μM): 33.9 RU; kobs ([2]; peptide 12.5 μM): 0.0166 s⁻¹; Req ([2]; peptide 25 μM): 36.3 RU; kobs ([2]; peptide 25 μM): 0.031 s⁻¹; Proteinuria compared to untreated mice [5]: less important and appears lately; Median survival [3]: > 40 weeks
